The record followed here is patent publication US9770445B2, “Sulfoximine substituted 5-fluoro-N-(pyridin-2-yl)pyridin-2-amine derivatives and their use as CDK9 kinase inhibitors” (BAYER PHARMA AKTIENGESELLSCHAFT, priority 2013, dated 2017).

Assay [1] has as its target T1, CDK9/CycT1 (Homo sapiens, UniProt P50750).
T1 construct: Recombinant full-length His-tagged human CDK9 and CycT1; His; purchased Invitrogen PV4131; host or cells: insect cells
Briefly: CDK9/CycT1 high ATP kinase assay (Method 1b, TR-FRET). In kind it is biochemical. The conditions noted are these: 2 mM ATP. The method, then: 1b. CDK9/CyeT1 High ATP Kinase Assay
CDK9/CycT1-inhibitory activity of compounds of the present invention at a high ATP concentration after preincubation of enzyme and test compounds was quantified employing the CDK9/CycT1 TR-FRET assay as described in the following paragraphs.
Recombinant full-length His-tagged human CDK9 and CycT1, expressed in insect cells and purified by Ni-NTA affinity chromatography, were purchase from Invitrogen (Cat. No PV4131). As substrate for the kinase reaction biotinylated peptide biotin-Ttds-YISPLKSPYKISEG (C-terminus in amid form) was used which can be purchased e.g. form the company JERINI peptide technologies (Berlin, Germany). For the assay 50 nl of a 100 fold concentrated solution of the test compound in DMSO was pipetted into a black low volume 384 well microtiter plate (Greiner Bio-One, Frickenhausen, Germany), 2 μl of a solution of CDK9/CycT1 in aqueous assay buffer [50 mM Tris/HCl pH 8.0, 10 mM MgCl2, 1.0 mM dithiothreitol, 0.1 mM sodium ortho-vanadate, 0.01% (v/v) Nonidet-P40 (Sigma)] were added and the mixture was incubated for […] at 22° C. to allow pre-binding of the test compounds to the enzyme before the start of the kinase reaction. Then the kinase reaction was started by the addition of 3 μl of a solution of adenosine-tri-phosphate (ATP, 3.3 mM=>final conc. in the 5 μl assay volume is 2 mM) and substrate (1.67 μM=>final conc. in the 5 μl assay volume is 1 μM) in assay buffer and the resulting mixture was incubated for a reaction time of […] at 22° C. The concentration of CDK9/CycT1 was adjusted depending of the activity of the enzyme lot and was chosen appropriate to have the assay in the linear range, typical concentrations were in the range of 0.5 μg/mL The reaction was stopped by the addition of 5 μl of a solution of TR-FRET detection reagents (0.2 μM streptavidine-XL665 [Cisbio Bioassays, Codolet, France] and 1 nM anti-RB(pSer807/pSer811)-antibody from BD Pharmingen [#558389] and 1.2 nM LANCE EU-W1024 labeled anti-mouse IgG antibody [Perkin-Elmer, product no. AD0077]) in an aqueous EDTA-solution (100 mM EDTA, 0.2% (w/v) bovine serum albumin in 100 mM HEPES/NaOH pH 7.0).
The resulting mixture was incubated 1 h at 22° C. to allow the formation of complex between the phosphorylated biotinylated peptide and the detection reagents. Subsequently the amount of phosphorylated substrate was evaluated by measurement of the resonance energy transfer from the Eu-chelate to the streptavidine-XL. Therefore, the fluorescence emissions at 620 nm and 665 nm after excitation at 350 nm was measured in a HTRF reader, e.g. a Rubystar (BMG Labtechnologies, Offenburg, Germany) or a Viewlux (Perkin-Elmer). The ratio of the emissions at 665 nm and at […] was taken as the measure for the amount of phosphorylated substrate. The data were normalised (enzyme reaction without inhibitor=0% inhibition, all other assay components but no enzyme=100% inhibition).
For orientation: In TR-FRET formats the signal depends on donor and acceptor labels being close together.

Assay [2] has as its system HeLa, human cervical tumour cells. Briefly: Proliferation assay, HeLa (crystal violet). The assay is classed as cell-based. The conditions noted are these: 96 h, 4 days, read-out: Inhibition of HeLa cell proliferation. The protocol:
(§1) Cultivated tumour cells (HeLa, human cervical tumour cells, ATCC CCL-2; NCI-H460, human non-small cell lung carcinoma cells, ATCC HTB-177; A2780, human ovarian carcinoma cells, ECACC #93112519; DU 145, hormone-independent human prostate carcinoma cells, ATCC HTB-81; HeLa-MaTu-ADR, multidrug-resistant human cervical carcinoma cells, EPO-GmbH Berlin; Caco-2, human colorectal carcinoma cells, ATCC HTB-37; B16F10, mouse melanoma cells, ATCC CRL-6475) were plated at a density of 5,000 cells/well (DU145, HeLa-MaTu-ADR), 3,000 cells/well (NCI-H460, HeLa), 2,500 cells/well (A2780), 1,500 cells/well (Caco-2), or 1,000 cells/well (B16F10) in a 96-well multititer plate in 200 μL of their respective growth medium supplemented 10% fetal calf serum. After 24 hours, the cells of one plate (zero-point plate) were stained with crystal violet (see below), while the medium of the other plates was replaced by fresh culture medium (200 μl), to which the test substances were added in various concentrations (0 μM, as well as in the range of 0.001-10 μM; the final concentration of the solvent dimethyl sulfoxide was 0.5%). The cells were incubated for 4 days in the presence of test substances. Cell proliferation was determined by staining the cells with crystal violet: the cells were fixed by adding 20 μl/measuring point of an 11% glutaric aldehyde solution for 15 minutes at room temperature. After three washing cycles of the fixed cells with water, the plates were dried at room temperature. The cells were stained by adding 100 μl/measuring point of a 0.1% crystal violet solution (pH 3.0). After three washing cycles of the stained cells with water, the plates were dried at room temperature. The dye was dissolved by adding 100 μl/measuring point of a 10% acetic acid solution. The extinction was determined by photometry at a wavelength of 595 nm. The change of cell number, in percent, was calculated by normalization of the measured values to the extinction values of the zero-point plate (=0%) and the extinction of the untreated (0 μm) cells (=100%). The IC50 values (inhibitory concentration at 50% of maximal effect) were determined by means of a 4 parameter fit.

Assay [3] relates to HeLa-MaTu-ADR, multidrug-resistant human cervical carcinoma cells. Briefly: Proliferation assay, HeLa-MaTu-ADR (crystal violet). The assay is classed as cell-based. The following applies: 96 h, 4 days, read-out: Inhibition of HeLa-MaTu-ADR cell proliferation. The method, then:
as §1

The subject of assay [4] is NCI-H460, human non-small cell lung carcinoma cells. The experiment in a line: Proliferation assay, NCI-H460 (crystal violet). The assay is classed as cell-based. The following applies: 96 h, NCI-H460, 4 days, read-out: Inhibition of NCI-H460 cell proliferation. The method, then: as §1
The test system of assay [5] is DU 145, hormone-independent human prostate carcinoma cells. Briefly: Proliferation assay, DU145 (crystal violet). The following applies: DU-145, 96 h, DU145, 4 days, read-out: Inhibition of DU145 cell proliferation. The assay is classed as cell-based. The protocol:
as §1

Assay [6] relates to Caco-2, human colorectal carcinoma cells. The experiment in a line: Proliferation assay, Caco-2 (crystal violet). In kind it is cell-based. The following applies: 96 h, Caco-2, 4 days, read-out: Inhibition of Caco-2 cell proliferation. The protocol: as §1
The test system of assay [7] is B16F10, mouse melanoma cells. Briefly: Proliferation assay, B16F10 (crystal violet). The assay is classed as cell-based. The conditions noted are these: B16-F10, 96 h, B16F10, 4 days, read-out: Inhibition of B16F10 cell proliferation. The protocol:
as §1

SMILES strings stand for the structures.

T1 sequence (P50750 whole entry): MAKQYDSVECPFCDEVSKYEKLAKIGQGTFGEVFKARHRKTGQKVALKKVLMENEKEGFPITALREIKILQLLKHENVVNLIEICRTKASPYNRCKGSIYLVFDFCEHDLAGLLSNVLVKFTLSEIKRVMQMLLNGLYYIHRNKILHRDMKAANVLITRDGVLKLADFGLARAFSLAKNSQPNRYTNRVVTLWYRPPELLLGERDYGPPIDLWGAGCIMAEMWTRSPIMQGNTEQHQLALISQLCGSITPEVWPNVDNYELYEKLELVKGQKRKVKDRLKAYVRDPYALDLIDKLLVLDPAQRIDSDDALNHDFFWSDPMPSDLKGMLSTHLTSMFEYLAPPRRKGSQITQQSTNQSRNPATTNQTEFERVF
T1 sequence (O60563 whole entry partner): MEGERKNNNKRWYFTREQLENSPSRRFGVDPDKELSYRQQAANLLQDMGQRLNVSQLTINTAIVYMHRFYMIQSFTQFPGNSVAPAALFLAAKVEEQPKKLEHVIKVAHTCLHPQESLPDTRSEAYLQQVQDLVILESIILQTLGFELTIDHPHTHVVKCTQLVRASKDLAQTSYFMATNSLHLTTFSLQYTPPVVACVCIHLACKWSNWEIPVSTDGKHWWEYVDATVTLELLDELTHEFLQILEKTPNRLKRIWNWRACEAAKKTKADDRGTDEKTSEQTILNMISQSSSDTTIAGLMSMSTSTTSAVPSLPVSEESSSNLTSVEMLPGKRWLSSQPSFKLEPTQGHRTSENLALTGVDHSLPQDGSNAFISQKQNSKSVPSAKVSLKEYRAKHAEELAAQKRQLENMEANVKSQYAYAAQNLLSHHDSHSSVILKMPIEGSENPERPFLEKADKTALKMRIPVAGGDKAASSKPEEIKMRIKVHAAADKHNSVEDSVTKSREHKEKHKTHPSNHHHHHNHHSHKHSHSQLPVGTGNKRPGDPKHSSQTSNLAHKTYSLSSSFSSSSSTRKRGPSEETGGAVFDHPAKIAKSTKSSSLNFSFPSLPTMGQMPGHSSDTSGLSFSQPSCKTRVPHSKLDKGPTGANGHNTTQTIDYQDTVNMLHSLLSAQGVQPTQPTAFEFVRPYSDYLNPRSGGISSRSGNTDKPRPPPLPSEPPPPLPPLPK

As to `CS(=O)(Cc1ccnc(Nc2cc(-c3ccc(F)c4ccoc34)c(F)cn2)c1)=NC(=O)C(F)(F)F` (racemic) [Example 6, (rac)-2,2,2-Trifluoro-N-{[(2-{[5-fluoro-4-(4-fluoro-1-benzofuran-7-yl)pyridin-2-yl]amino}pyridin-4-yl)methyl](methyl)oxido-λ^6-sulfanylidene}acetamide], the IC50 in assay [1] was found to be 0.0064 µM; in assay [2], 0.042 µM; in assay [3], 0.052 µM; in assay [4], 0.046 µM; in assay [5], 0.042 µM; in assay [6] it was 0.058 µM. Besides, in assay [7], the IC50 amounted to 0.088 µM.
Take `CS(=N)(=O)Cc1ccnc(Nc2cc(-c3ccc(F)c4ccoc34)c(F)cn2)c1` (racemic) [Example 5, (rac)-5-Fluoro-4-(4-fluoro-1-benzofuran-7-yl)-N-{4-[(S-methylsulfonimidoyl)methyl]pyridin-2-yl}pyridin-2-amine]: the IC50 in assay [1] was 0.002 µM; in assay [2], 0.031 µM; in assay [3] it was 0.042 µM; in assay [4], 0.12 µM; in assay [5], 0.055 µM; in assay [6], 0.046 µM. The IC50 in assay [7] is 0.053 µM.
